Laboratory results reported in US20240238363A1 (priority 2020, published 2024).

How the values were obtained:
CCR5 [1] = target: T1, CCR5 (Mus musculus, UniProt P51682); conditions: FIG. 2A; CCR5 tropic gp120; cultured mouse hippocampal neurons
Procedure: (§1) Aβd/t was isolated from medium of cultured 7PA2 cells, a CHO cell line expressing a form of human APP found in Familial AD. The amount of ABd/t is quantified by Western blot with standards of synthetic Aβ monomer. Neuronal cultures, fixation, permeabilization, blocking and immunostaining is performed starting with E16.5 mouse hippocampal neurons by common methods in broad use.
(§2) Images of fixed neurons immunostained for cofilin, growth cones and nuclei captured across the entire coverslip are exported to ImageJ. Macro functions are applied to set local threshold and shape/size segmentation for both the cofilin and growth cone antibodies. Cofilin stained material that is not within neurites is eliminated. Results are reported as rods/nucleus, number of rods per area, rods as percent of total area, or, if NeuN stained or identified morphologically, rods per neuron.

CCR5 [2] = target: T1, CCR5; conditions: pharmacologic blockade of CCR5; cited from earlier work
[3] = test system: cofilin rods in cultured mouse hippocampal neurons; format: cell-based
Procedure: as §1, §2
(§3) Amyloid beta (Aβ) trimer was added to pure cultures of mouse hippocampal neurons, devoid of immune cells, microglia, and their secreted inflammatory mediators to evaluate actin dynamics and cofilin-rod formation. […] The relevance is that rod pathology leads to synapse loss in people that correlates with dementia.

[4] = test system: growth cones in pure cultures of mouse hippocampal neurons; conditions: FIG. 5; Aβ trimer-treated neurons, 2G13 antibody stain
Procedure: as §1, §2, §3

CXCR4 [5] = conditions: in vivo; cited from earlier work
CXCR4 [6] = target: CXCR4 (Mus musculus, UniProt P70658); conditions: FIG. 2A; CXCR4 tropic gp120; cultured mouse hippocampal neurons
CXCR4 (Mus musculus, UniProt P70658), sequence (P70658 whole entry): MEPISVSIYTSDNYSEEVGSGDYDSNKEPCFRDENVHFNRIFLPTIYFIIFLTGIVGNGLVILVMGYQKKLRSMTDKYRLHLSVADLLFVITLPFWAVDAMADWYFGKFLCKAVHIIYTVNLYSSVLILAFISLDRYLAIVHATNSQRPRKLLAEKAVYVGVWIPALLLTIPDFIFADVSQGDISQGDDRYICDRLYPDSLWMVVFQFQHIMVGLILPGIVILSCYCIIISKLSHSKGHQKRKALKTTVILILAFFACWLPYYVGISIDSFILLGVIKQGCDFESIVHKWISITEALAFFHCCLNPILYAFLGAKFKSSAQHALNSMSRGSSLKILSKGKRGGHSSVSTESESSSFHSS
Procedure: as §1, §2

[7] = test system: cognitive deficits in HAND; conditions: phase 2 human trials and brain scans; cited from earlier work
[8] = test system: dendritic spine morphology, dendritic arborization and functional deficits; conditions: animal model of HIV cognitive decline; cited from earlier work

T1 sequence (P51682 whole entry): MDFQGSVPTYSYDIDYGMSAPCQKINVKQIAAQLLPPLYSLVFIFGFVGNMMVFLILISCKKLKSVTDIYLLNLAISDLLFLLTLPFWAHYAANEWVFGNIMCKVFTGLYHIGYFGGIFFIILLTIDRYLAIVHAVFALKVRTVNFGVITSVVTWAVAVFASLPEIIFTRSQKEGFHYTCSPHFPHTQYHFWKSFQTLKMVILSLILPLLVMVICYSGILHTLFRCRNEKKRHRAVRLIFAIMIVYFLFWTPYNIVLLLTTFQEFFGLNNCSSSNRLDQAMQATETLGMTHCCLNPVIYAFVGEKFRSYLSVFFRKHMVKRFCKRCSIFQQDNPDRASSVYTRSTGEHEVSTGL

Q: With maraviroc as the molecule, how does the “inhibition of gp120-induced cofilin-rod formation through CCR5” value (CCR5 [1]) read?
A: Its value is “inhibited”.

Q: And the “dendritic spines and neurite cortical projections after stroke and traumatic brain injury” value (CCR5 [2])?
A: The value was “preservation of dendritic spines and new patterns of neurite cortical projections”.

Q: And the “early pathology of synapse loss (cofilin-rod formation) induced by beta-amyloid (Aβ-trimer/dimer)” value ([3]; FIG. 2B, blocking neuronal CCR5)?
A: Its value is “can be reversed”.

Q: Which results are given for all-D-TTNYT [RAP-103]?
A: growth cone formation [4]: promote growth cone formation; area within the neurons occupied by cofilin-rods, caused by amyloid beta (Aβ) [3]: reducing; area within the neurons occupied by cofilin-rods, caused by pre-formed fibrils (PPF) of alpha-synuclein [3]: reducing; block Aβ-induced formation of cofilin rods (percent of neurons expressing cofilin-rods) [3]: block; block TNF-induced formation of cofilin rods [3]: block; cofilin rod-like structures at the ends of dendrites [3]: eliminated

Q: Which “recovery after traumatic brain injury” value (CXCR4 [5]) does the source give for `c1cc(CN2CCCNCCNCCCNCC2)ccc1CN1CCCNCCNCCCNCC1` [AMD3100] here?
A: The value was “improved recovery”.

Q: And the “inhibition of gp120-induced cofilin-rod formation through CXCR4” value (CXCR4 [6])?
A: The value was “inhibited”.

Q: For Dala1-peptide T-amide [DAPTA], which “cognitive deficits in HAND” value [7] is on record?
A: The value was “able to reverse cognitive deficits”.

Q: And the “dendritic spine morphology, dendritic arborization and functional deficits” value [8]?
A: Its value is “protection of dendritic spine morphology, expansion of dendritic arborization and reversal of functional deficits”.

Q: With all-D-ASTTTNYT [RAP-310] as the molecule, how does the “block Aβ-induced formation of cofilin rods (percent of neurons expressing cofilin-rods)” value [3] read?
A: Its value is “block”.

Q: What about the “block TNF-induced formation of cofilin rods” value [3] of the same molecule?
A: Its value is “block”.
